# From article PMC12858405, “Ideal efficacy photoswitching for chromocontrol of TRPC4/5 channel functions in live tissues” (Nature Chemical Biology, 2026)
# System: mouse small intestine segments
# Experiment: Spontaneous motility of atropine-paralysed intestinal segments, video imaging with 365/447 nm
# From the text: Müller, Niemeyer, et al., Schaefer & Thorn-Seshold 2025: Ideal Efficacy Photoswitching of TRPC4/5 in Tissue 7 Spontaneous motility and isometric contractility (Fig. 6)
# After sacrificing mice in accordance to the European (Council Directive 2010/63/EU) and German guidelines for the welfare of experimental animals, the abdomen was opened, and intestinal loops were mobilised. Ileal segments were obtained starting 10 mm from the ileocoecal junction. Ileal segments with a length of 3 mm for myography experiments or with a length of 8-12 mm for observation of spontaneous movement were cut out and flushed with carbogen-equilibrated KBRS.
# The adventitial layer was carefully peeled off, using a pair of forceps. […]
# Spontaneous motility: for macroscopic observation, ileal segments were placed in KBRS-filled 24-well plates, and treated with 300 nM atropine (which has long been known to override the inherent oscillatory bias of the gut nerve system to paralyse digestion) or its solvent. […] A time-lapse movie was recorded, and 365 nm or 447 nm LED were electronically switched to induce photoswitching. The recorded image stack was cut into substacks, covering a single well, each. The temporal variance of the shadow cast by the segments was calculated for consecutive 1 s bins and taken as a measure to obtain the temporal signature of the motility. […]
smiles,measurement,setting,value
Cn1c(=O)n(CCCO)c(=O)c2c1nc(Oc1ccc(N=Nc3ccccc3)c(OC(F)(F)F)c1)n2Cc1ccc(Cl)cc1 [AzPico],Response of atropine-paralysed small intestine segments to UV illumination,"10 nM, 300 nM atropine, stopped by 447 nm",initiated vigorous motions
same,Photoresponse of colon segments,treated colon segments,no photoresponse
